Data taken from patent US20240166626A1, “Compounds and Methods for Preventing, Treating, or Ameliorating Airway Disease” (THOMAS JEFFERSON UNIVERSITY, priority 2021, published 2024).

Legend:
Format in all cases: cell-based
HASM cells = assay: Human airway smooth muscle cell scratch (migration) assay; settings: 24 hours post scratch, 20 ng/mL PDGF, relative to PDGF alone
Protocol: FIGS. 4A-4F: DFPQ inhibits internalization of the β2AR and protects from agonist induced desensitization in cell and tissue models. FIG. 4A: Effect of DFPQ on agonist-promoted internalization of the β2AR. HEK 293 cells stably expressing FLAG-β2AR were pre-incubated with 0.1% DMSO or 10 μM DFPQ for 30 min and then stimulated with the indicated concentrations of ISO for up to 60 min. Cells were fixed and receptor surface expression was measured by ELISA. […] Cells were lysed and cAMP production was measured by ELISA. […] FIG. 4C: Mouse airway tissue were contracted with 1 μM methacholine for 5 min and then incubated overnight with 1 μM ISO±1 μM DFPQ. Airway slices were washed, re-contracted with methacholine, and incubated with ISO for 1 hour (n=4 bronchioles). Airway contractility was measured by luminal area of bronchioles by microscopy at various times. FIG. 4D: Bar graphs represent normalized ISO-promoted relaxation from methacholine contraction on day 2 of treatment at the 25 min timepoint from 4 tracheal rings. *, p<0.05 FIG. 4E: HASM cells were scratched and incubated overnight in PDGF containing serum free media. Cells were imaged to evaluate migration into the scratched area. FIG. 4F: Densitometric analysis of migration into scratched area (n=3 experiments). ***, p<0.001; **, p<0.01
Cell culture GLOSENSOR™ cells (Promega) were maintained in Dulbecco's modified Eagle's medium (DMEM) containing 10% fetal bovine serum (FBS) and 200 μg/ml Hygromycin B. […]® ADRB2 cells (DiscoveRx) were maintained with the AssayComplete™ Cell Culture kit (DiscoveRx catalog #92-3107G). […] Cells were read every three minutes for 18 minutes on a PolarStar Optima plate reader (BMG) to establish peak signal. ISO was added to each well to a final concentration of 1 μM, and luminescence was determined in kinetic mode at room temperature (23-25° C.). Response was analyzed relative to forskolin (7 μM) and alprenolol (1 μM) as positive and negative controls, respectively. […] Luminescence was determined at room temperature (23-25° C.) on a PolarStar Optima plate reader (BMG). […]

β2AR [1] = target: T1, β2AR (Homo sapiens, UniProt P07550); assay: […] high throughput assay for β-arrestin recruitment to β2AR; settings: PathHunter, ISO-promoted β-arrestin2 recruitment
T1 sequence (P07550 whole entry): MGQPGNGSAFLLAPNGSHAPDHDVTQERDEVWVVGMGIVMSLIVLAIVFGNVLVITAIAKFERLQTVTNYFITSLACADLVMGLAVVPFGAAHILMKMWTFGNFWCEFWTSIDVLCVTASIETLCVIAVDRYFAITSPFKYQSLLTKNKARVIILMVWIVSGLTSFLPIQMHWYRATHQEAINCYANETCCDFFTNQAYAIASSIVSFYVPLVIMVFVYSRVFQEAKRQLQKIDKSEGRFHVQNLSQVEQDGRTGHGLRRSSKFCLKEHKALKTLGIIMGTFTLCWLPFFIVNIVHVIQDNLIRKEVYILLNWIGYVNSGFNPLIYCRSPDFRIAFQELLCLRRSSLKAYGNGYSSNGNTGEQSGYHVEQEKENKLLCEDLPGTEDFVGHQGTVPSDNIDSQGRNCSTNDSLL
Protocol: (§1) HEK 293 cells stably overexpressing β2AR included 250 μg/ml G418. Cells were incubated at 37° C. in a humidified incubator with 5% CO2. High throughput assay for cAMP production. […] 0.25 μL of orthogonally compressed libraries from the Lankenau Chemical Genomics Center (LCGC) were transferred into plates using a high-density replication tool and allowed to incubate with cells for one hour at 37° C. Cells were read every three minutes for 18 minutes on a PolarStar Optima plate reader (BMG) to establish peak signal. ISO was added to each well to a final concentration of 1 μM, and luminescence was determined in kinetic mode at room temperature (23-25° C.). Response was analyzed relative to forskolin (7 μM) and alprenolol (1 μM) as positive and negative controls, respectively. High throughput assay for β-arrestin recruitment to β2AR. […] 0.25 μL of orthogonally compressed libraries from the Lankenau Chemical Genomics Center (LCGC) were transferred into plates using a high-density replication tool and allowed to incubate with cells for 45 minutes at 37° C. ISO (5 μL of 5 μM stock in cell plating medium) was added to each well to a final concentration of 1 μM, and cells were incubated for 70 minutes at 37° C. Plates were removed from the incubator, and 12.5 μL of […] ® detection solution (DiscoveRx catalog #93-0001) was added to each well. Plates were incubated in the dark at room temperature for one hour. Luminescence was determined at room temperature (23-25° C.) on a PolarStar Optima plate reader (BMG). Response was analyzed relative to vehicle (DMSO) and alprenolol (1 μM) as positive and negative controls, respectively. Screening data analysis and IC50 determination. Negative control signal was subtracted from all data and responses were normalized relative to full response (positive control minus negative control). Relative assay bias was calculated from the ratio of normalized cAMP and arrestin recruitment responses. Wells from orthogonally-compressed libraries displaying Gs-bias (negative allosteric modulators of arrestin recruitment and positive allosteric modulators of cAMP production, excluding inverse agonists) were deconvoluted to identify compounds for follow-up analysis.

β2AR [2] = target: T1, β2AR; assay: GLOSENSOR cAMP production assay (bias = GloSensor IC50:PathHunter IC50); settings: GloSensor IC50:PathHunter IC50 ratio
Protocol: as §1

[3] = Table 2, scaffold drawing 253, R1/R2 substituents
[4] = Table 3, scaffold drawing 254, R1/R3 substituents

Row | Structure (SMILES) | HASM cell migration into scratched area (HASM cells) | IC50 (β2AR [1]; [3]) | Arrestin fold bias (β2AR [2]; Table 2) | IC50 (β2AR [1]; [4]) | Arrestin fold bias (β2AR [2]; Table 3)
1 | CC(C)NCC(O)c1ccc(O)c(O)c1 (stereo not shown) [ISO, isoproterenol] | reduced migration |  |  |  | 
2 | c1ccc2c(NC3CCCCC3)nc(NC3CCCCC3)nc2c1 [cyclohexyl / N/A] |  | 4 ± 1 µM | >10 |  | 
3 | Clc1ccc(Nc2nc(NC3CCCCC3)c3ccccc3n2)cc1Cl [m,p-dichlorophenyl / N/A] |  | 3 ± 0.7 µM | >100 |  | 
4 | Fc1ccc(Nc2nc(NC3CCCCC3)c3cc(Br)ccc3n2)cc1F [m,p-difluorophenyl / 6-bromo] |  | 0.03 ± 0.02 µM | >900 |  | 
5 | Fc1ccc(Nc2nc(NC3CCCCC3)c3cc(Cl)ccc3n2)cc1F [m,p-difluorophenyl / 6-chloro] |  | 0.12 ± 0.05 µM | >400 |  | 
6 | Cc1ccc2nc(Nc3ccc(F)c(F)c3)nc(NC3CCCCC3)c2c1 [m,p-difluorophenyl / 6-methyl] |  | 0.36 ± 0.18 µM | >45 |  | 
7 | Fc1ccc(Nc2nc(NC3CCCCC3)c3cc(C(F)(F)F)ccc3n2)cc1F [m,p-difluorophenyl / 6-trifluoromethyl] |  |  | >1000 |  | 
8 | COc1ccc(Nc2nc(NC3CCCCC3)c3ccccc3n2)cc1OC [m,p-dimethoxyphenyl / N/A] |  | 14 ± 3 µM | >7 |  | 
9 | Clc1cccc(CNc2nc(NC3CCCCC3)c3ccccc3n2)c1 [m-chlorobenzyl / N/A] |  | 21 ± 2 µM | No |  | 
10 | Clc1cccc(Nc2nc(NC3CCCCC3)c3ccccc3n2)c1 [m-chlorophenyl / N/A] |  | 6 ± 0.8 µM | >10 |  | 
11 | CC1CCCC(Nc2nc(Nc3cc(Cl)cc(Cl)c3)nc3ccccc23)C1 (stereo not shown) [m-dichlorophenyl / 3-methylcyclohexyl] |  |  |  | 8 ± 5 µM | >10
12 | Clc1cc(Cl)cc(Nc2nc(NCc3ccccc3)c3ccccc3n2)c1 [m-dichlorophenyl / benzyl] |  |  |  | 30 ± 4 µM | No
13 | Clc1cc(Cl)cc(Nc2nc(NC3CCCC3)c3ccccc3n2)c1 [m-dichlorophenyl / cyclopentyl] |  |  |  | 9 ± 3 µM | ~2
14 | Fc1cc(F)cc(Nc2nc(NC3CCCCC3)c3ccccc3n2)c1 [m-difluorophenyl / N/A] |  | 0.2 ± 0.05 µM | >200 |  | 
15 | FC(F)(F)c1cccc(Nc2nc(NC3CCCCC3)c3ccccc3n2)c1 [m-trifluoromethylphenyl / N/A] |  | 3 ± 1 µM | ~3 |  | 
16 | Clc1ccc(Nc2nc(NC3CCCCC3)c3ccccc3n2)cc1 [p-chlorophenyl / N/A] |  | 0.8 ± 0.2 µM | >100 |  | 
17 | Fc1ccc(Nc2nc(NC3CCCCC3)c3ccccc3n2)cc1 [p-fluorophenyl / N/A] |  | 0.23 ± 0.07 µM | >200 |  | 
18 | Cc1ccc(CNc2nc(NC3CCCCC3)c3ccccc3n2)cc1 [p-methylbenzyl / N/A] |  | 8 ± 2 µM | ~4 |  | 
19 | c1ccc(Nc2nc(NC3CCCCC3)c3ccccc3n2)cc1 [phenyl / N/A] |  | 3 ± 0.7 µM | >100 |  | 
20 | OCc1cc(C(O)CNCCCCCCOCCCCc2ccccc2)ccc1O (stereo not shown) [salmeterol] | reduced migration |  |  |  | 
